In US10438128B2, “Treatment of autoimmune and inflammatory diseases with the arsenic compounds AS2O3 and/or AS2O5 administered locally” (CENTRE NATIONAL DE LA RECHERCHE SCIENTIFIQUE (CNRS), priority 2013, dated 2019):

Legend:
MRL/lpr mice [1] = test: Experiment 6: systemic treatment with suboptimal As2O3, As2O5 or the combination; assay type: in vivo, mouse; details: suboptimal 0.12 mg/ml, 5 times/week, 8 weeks
Description: (§1) Methods: MRL/lpr mice (males and females) presenting severe lupus-type skin lesions and cutaneous necrotizing vasculitis were treated 5 times per week, for 8 weeks, by administering an aqueous solution containing either the arsenic compound As2O3 or the compound As2O5 or a mixture of both compounds As2O3+As2O5 or phosphate buffer (PBS) as negative control. Weakly effective doses (suboptimal) of As2O3 or As2O5 were voluntarily used. The arsenic compounds were administered in aqueous form using compresses or a brush for local treatment or an intraperitoneal injection for systemic treatment.
(§2) At the conclusion of the treatment, the blood of each animal was sampled in order to quantify in the serum the levels of autoantibodies (anti-DNA, rheumatoid factor) and cytokines involved in the disease. Skin from the back of each animal was sampled for histological analysis and for analysis of the nature of the inflammatory infiltrate after isolating the cells using enzymatic methods, their counts under the microscope and their analyses by flow cytometry using fluorescent antibodies specific to leukocytes.

[2] = 20° C.; cited from earlier work
MRL/lpr mice [3] = test: Experiment 1: topical treatment of skin lesions in MRL/lpr mice with As2O3; assay type: in vivo, mouse; details: 0.5 mg/ml
Source text: MRL/lpr mice spontaneously develop disseminated lupus erythematosus, rheumatoid polyarthritis and Sjögren's syndrome characterized by dermatological, vascular, renal, pulmonary, articular and ocular damage due to lymphoid cell infiltrates. As in man, a strong sexual dimorphism is observed in MRL/lpr mice, the female mice presenting an earlier and more severe pathology than the males and dying earlier. The disease begins around the age of 8 weeks and causes the death of the mice, on average, at around 18 weeks of age for the females and 22 weeks for the males, the average lifespan of a normal mouse being 2 years.
Methods: The solubility of arsenic compounds depends mainly on the pH and oxidation-reduction conditions and the temperature of the excipient. Since the arsenic compound As2O3 is poorly water soluble, it is first dissolved at a high concentration (60 to 70 mg/ml) in dilute alkaline solution (0.5 or 1 M) and gently heated until a clear and colorless solution is obtained. This solution is made free of particles and sterile by filtration on a 0.22 μm filter. The stock As2O3 solution thus obtained is then diluted in phosphate buffer or sterile physiological saline at the concentration varying from 0.5 mg/ml for use in vivo. The stock solution of the arsenic compound As2O3 is preserved from 1 to 3 months in the refrigerator (4° C.), whereas the dilute solution is preserved only 5 days at 4° C. and away from light.
MRL/lpr mice (10 females and 10 males per group, aged 4 to 5 months) presenting severe lupus-type skin lesions, and for some cutaneous necrotizing vasculitis, were treated, 3 or 5 times per week depending on the experiment (from Monday to Friday), for 8 weeks, by application on the tissue lesions of a compress (or a brush) impregnated with arsenic As2O3 solution at concentrations of 0.5 mg/ml. The control animals were mice, of the same age and sex, treated with the excipient.

MRL/lpr mice [4] = test: Experiment 2: gradual decrease in number of weekly topical applications of As2O3; assay type: in vivo, mouse
Description: Methods: Severe skin lesions and cutaneous necrotizing vasculitis present before treatment (time t0 in FIGS. 3, 4 and 5) in 15 4-month-old MRL/lpr mice were treated by applying a compress (or a brush) impregnated with a solution of the arsenic compound As2O3 at the concentration of 0.5 mg/ml. The number of applications per week varied from 2 to 5 depending on the experiment. Similarly, the total duration of the topical treatment varied from 7 to 32 weeks.

MRL/lpr mice [5] = test: Experiment 6: local treatment with suboptimal As2O3, As2O5 or the combination; assay type: in vivo, mouse; details: suboptimal 0.12 mg/ml, 5 applications/week, 8 weeks
Description: as §1, §2

[6] = ratio to As2O3; cited from earlier work
[7] = cited from earlier work
MRL/lpr mice [8] = test: Experiment 4: gradual decrease in number of weekly topical applications of As2O5; assay type: in vivo, mouse
Description: Methods: Severe skin lesions and cutaneous necrotizing vasculitis present at time t0 in 10 MRL/lpr mice 4 to 5 months in age were treated by applying a compress (or a brush) impregnated with a solution of the arsenic compound As2O5 at the concentration of 0.5 mg/ml.

MRL/lpr mice [9] = test: Experiment 3: topical treatment of skin lesions in MRL/lpr mice with As2O5; assay type: in vivo, mouse; details: 0.5 mg/ml
Description: Methods: The arsenic compound As2O5 is first dissolved at a high concentration (10 to 15 mg/ml) in distilled water until a clear and colorless solution is obtained. The solution is made sterile and free of particles by filtration on a 0.22 μm filter. The stock As2O5 solution thus obtained is then diluted in phosphate buffer or sterile physiological saline so as to obtain a concentration between 0.5 mg/ml for use in vivo. The stock solution of the arsenic compound As2O5 is preserved for 1 to 3 months in the refrigerator (4° C.), while the dilute solution is preserved for only 5 days at 4° C. and away from light.
MRL/lpr mice (12 females and 12 males, 4 to 5 months of age) presenting severe lupus-type skin lesions, and for some cutaneous necrotizing vasculitis (time t0 in FIG. 6), were treated 5 times per week (Monday to Friday), for 8 weeks, by applying on the tissue lesions a compress (or a brush) impregnated with a solution of arsenic As2O5 at concentrations of 0.5 mg/ml. The control animals were mice of the same age and sex treated with the excipient.

MRL/lpr mice [10] = test: Experiment 5: systemic (intraperitoneal) treatment of skin lesions in MRL/lpr mice with As2O5; assay type: in vivo, mouse
Description: Methods: MRL/lpr mice (6 females and 6 males, 4 to 5 months of age) presenting severe lupus-type skin lesions and cutaneous necrotizing vasculitis (time t0 FIGS. 8A and 8B) were treated 5 times per week (Monday to Friday), for 3 or 4 weeks, by intraperitoneal injections of 0.1 ml per 10 g of mouse of a solution of arsenic As2O5 at the concentration of 0.5 mg/ml. The control animals were mice of the same age and sex treated with the excipient.

arsenic trioxide [As2O3]
cells in lymphocytic/inflammatory infiltrate of back skin (FIG. 9B) (MRL/lpr mice [1]): still high number of cells
solubility in water [2]: 37 mg/mL
regrowth of hair (skin tissue regeneration) (MRL/lpr mice [3]): nearly complete regrowth of hair
tissue lesions after 8 weeks with 3 weekly applications (MRL/lpr mice [3]; 3 applications/week, less severe lesions, female mice): significant decrease
tissue destruction after 2 weeks of treatment (MRL/lpr mice [3]; 5 applications/week, 2 weeks): ceased and even regressed
inflammatory skin lesions after 8 weeks of treatment (MRL/lpr mice [3]; 5 applications/week, 8 weeks): nearly completely disappear
undesirable effect (nonspecific immunosuppression, tissue toxicity or premature death) (MRL/lpr mice [3]; 8 weeks): No undesirable effect
relapse or rebound of the disease after reduced dosing schedule (MRL/lpr mice [4]; 5/week for 4 weeks, then 3/week for 6 weeks, female mouse): no relapse or rebound
skin damage after 7 weeks of topical treatment (MRL/lpr mice [4]; 5 applications/week for 2 weeks, then 2/week for 5 weeks): decreased considerably
age reached by treated mouse (euthanized) (MRL/lpr mice [4]; female, 3.5 months old at t0, treated 32 weeks discontinuously): 1 year
cells in lymphocytic/inflammatory infiltrate of back skin (FIG. 9A) (MRL/lpr mice [5]): still high number of cells
inflammatory skin lesions (FIG. 10) (MRL/lpr mice [5]): presence of severe skin lesions

O=[As](=O)O[As](=O)=O [As2O5, arsenic pentoxide]
cells in lymphocytic/inflammatory infiltrate of back skin (FIG. 9B) (MRL/lpr mice [1]): still high number of cells
toxicity relative to As2O3 [6]: about 1/60
oral lethal dose for man [7]: 5 to 50 mg/kg
relapse or rebound of the disease at a single application per week (MRL/lpr mice [8]; 5 weeks, 1 application/week): no relapse or rebound
time to stop development of tissue lesions (MRL/lpr mice [8]; front-line treatment, 5 applications/week): ≤ 2 weeks
skin lesions after 2 further weeks at 2 applications per week (MRL/lpr mice [8]; topical, 0.5 mg/ml): nearly disappeared
inflammatory skin and vasculitis lesions after 2 weeks (MRL/lpr mice [8]; topical, 0.5 mg/ml, 5 applications/week): ceased
survival after the beginning of the treatment (majority of animals) (MRL/lpr mice [8]; topical, schedule reduced from 5 to 1 application/week): more than 8 weeks
regrowth of hair (regeneration of lesioned skin tissue) (MRL/lpr mice [9]): nearly complete regrowth of hair
destruction of the skin in first week of treatment (MRL/lpr mice [9]; 5 applications/week): ceased
skin lesions after 4 weeks of treatment (MRL/lpr mice [9]; 5 applications/week): almost disappeared
time until destruction of skin tissue ceased (MRL/lpr mice [9]; 5 applications/week): less than 2 weeks
undesirable effect (nonspecific immunosuppression, tissue toxicity or premature death) (MRL/lpr mice [9]; 8 weeks): no undesirable effect
cells in lymphocytic/inflammatory infiltrate of back skin (FIG. 9A) (MRL/lpr mice [5]): still high number of cells
inflammatory skin lesions (FIG. 10) (MRL/lpr mice [5]): presence of severe skin lesions
regrowth of hair (regeneration of lesioned skin tissue) (MRL/lpr mice [10]): nearly complete regrowth of hair
undesirable effect (nonspecific immunosuppression, tissue toxicity or premature death) (MRL/lpr mice [10]; 0.5 mg/ml solution): no undesirable effect
destruction of skin after 3 or 4 weeks of treatment (MRL/lpr mice [10]; 0.1 ml per 10 g of 0.5 mg/ml, 5 times/week): strongly regressed or even nearly disappeared
